Test results from patent US10881110B2, “Herbicidal compositions comprising isoxazolo[5,4-b]pyridines” (BASF SE, priority 2014, dated 2021).

Legend:
Assay in all cases: greenhouse post-emergence herbicidal test
ERICA = format: in vivo, Conyza canadensis; set-up: key to herbicidal activity against ERICA found: rating on a scale from 0 to 100; details: post emergence
Procedure: (§1) The culture containers used were plastic pots containing medium loamy sand with approximately 4.6% of humus and 69.9% sand as substrate. The seeds of the test plants were sown separately for each species.
(§2) For the post-emergence treatment, the test plants were grown to a plant height of from 1 to 15 cm, depending on the plant habit, and only then treated with the active compounds which had been suspended or emulsified in water. To this end, the test plants were either sown directly, and grown in the same containers, or they were first grown separately as seedlings and transplanted into the test containers a few days prior to treatment.
(§3) Depending on the species, the plants were kept at 10-25° C. and 20-35° C., respectively.
(§4) The test period extended over 1 to 3 weeks. During this time, the plants were tended and their response to the individual treatments was evaluated 20 days after treatment except mentioned otherwise.
(§5) Evaluation was carried out using a scale from 0 to 100. 100 means no emergence of the plants, or complete destruction of at least the above-ground parts, and 0 means no damage or normal course of growth.
(§6) The respective stated components A and B, and, if appropriate, C, were formulated as a 10% by weight strength emulsion concentrate and, with addition of the amount of solvent system, introduced into the spray liquor used for applying the active compound. In the examples, the solvent used was water.
(§7) In the examples below, using the method of S. R. Colby (1967) “Calculating synergistic and antagonistic responses of herbicide combinations”, Weeds 15, p. 22 ff., the value E, which is expected if the activity of the individual active compounds is only additive, was calculated. E=X+Y−(X·Y/100)

PAPRH = format: in vivo, Papaver rhoeas; set-up: key: rating on a scale from 0 to 100
Procedure: as §1, §2, §3, §4, §5, §6, §7

IPOHE = format: in vivo, Ipomoea hederacea; set-up: key to herbicidal activity against IPOHE found: rating on a scale from 0 to 100; details: post emergence
Procedure: as §1, §2, §3, §4, §5, §6, §7

MATCH = format: in vivo, Matricaria recutita; set-up: key to herbicidal activity against MATCH found: rating on a scale from 0 to 100; details: post emergence; for herbicidal activity against MATCH found: I.1 62.5 g/ha
Procedure: as §1, §2, §3, §4, §5, §6, §7

POLCO = format: in vivo, Polygonum convolvulus; set-up: key to herbicidal activity against POLCO found: rating on a scale from 0 to 100; details: post emergence
Procedure: as §1, §2, §3, §4, §5, §6, §7

ABUTH = format: in vivo, Abutilon theophrast; set-up: key to herbicidal activity against ABUTH found: rating on a scale from 0 to 100; details: post emergence, I.1 62.5 g/ha
Procedure: as §1, §2, §3, §4, §5, §6, §7

KCHSC = format: in vivo, Kochia scoparia; set-up: key to herbicidal activity against KCHSC found: rating on a scale from 0 to 100; details: post emergence, B.167 62.5 g/ha a.i.
Procedure: as §1, §2, §3, §4, §5, §6, §7

GERDI = format: in vivo, Geranium dissectum; set-up: key to herbicidal activity against GERDI found: rating on a scale from 0 to 100; details: post emergence
Procedure: as §1, §2, §3, §4, §5, §6, §7

ECHCG = format: in vivo, Echinochloa crus-galli; set-up: key to herbicidal activity against ECHCG found / herbicidal activity against ECHCH found: scale 0 to 100; details: for herbicidal activity against ECHCG found: post emergence, B.167 125 g/ha a.i.
Procedure: as §1, §2, §3, §4, §5, §6, §7

ALOMY = format: in vivo, Alopecurus myosuroides; details: Alopecurus myosuroides, post-emergence, 480 h, read-out: herbicidal activity against ALOMY found
Procedure: as §1, §2, §3, §4, §5, §6, §7

[1] = I.1 62.5 g/ha, B.57 2 g/ha a.i.
[2] = I.1 62.5 g/ha, B.167 125 g/ha a.i.

**Q.** With `COc1cc(OC)n2nc(NS(=O)(=O)c3c(C(F)(F)F)ccnc3OC)nc2n1` [B.57, pyroxsulam] as the compound, how does the “herbicidal activity against ERICA found” value (ERICA; [1]) read?
**A.** 75

**Q.** What about the “herbicidal activity against PAPRH found” value (PAPRH; [1]) of the same compound?
**A.** 0

**Q.** What about the “herbicidal activity against IPOHE found” value (IPOHE; I.1 62.5 g/ha, B.57 1 g/ha a.i.) of the same compound?
**A.** 80

**Q.** Which results are given for `O=C(O)c1c(Cl)ccc2cc(Cl)cnc12` [B.167, quinclorac]?
**A.** herbicidal activity against MATCH found (MATCH; B.167 62.5 g/ha a.i.): 0; herbicidal activity against MATCH found (MATCH; B.167 125 g/ha a.i.): 30; herbicidal activity against POLCO found (POLCO; I.1 15.62 g/ha, B.167 62.5 g/ha a.i.): 0; herbicidal activity against POLCO found (POLCO; I.1 15.62 g/ha, B.167 125 g/ha a.i.): 30; herbicidal activity against POLCO found (POLCO; I.1 62.5 g/ha, B.167 62.5 g/ha a.i.): 0; herbicidal activity against POLCO found (POLCO; [2]): 30; herbicidal activity against ABUTH found (ABUTH; B.167 62.5 g/ha a.i.): 65; herbicidal activity against ABUTH found (ABUTH; B.167 125 g/ha a.i.): 70; herbicidal activity against KCHSC found (KCHSC; I.1 31.25 g/ha): 0; herbicidal activity against KCHSC found (KCHSC; I.1 62.5 g/ha): 0; herbicidal activity against GERDI found (GERDI; [2]): 0; herbicidal activity against ECHCG found (ECHCG; I.1 15.62 g/ha): 20; herbicidal activity against ECHCG found (ECHCG; I.1 31.25 g/ha): 20

**Q.** Which pest or weed control at 5 g/ha (ECHCG; Echinochloa crus-galli, post-emergence, 480 h, read-out: herbicidal activity against ECHCG found) does the source give for `COC(=O)c1c(Cl)nn(C)c1S(=O)(=O)NC(=O)Nc1nc(OC)cc(OC)n1` [halosulfuron-methyl] here?
**A.** 45%

**Q.** And the pest or weed control at 5 g/ha (ALOMY)?
**A.** 10%

**Q.** What does the source list for `CCS(=O)(=O)c1cccnc1S(=O)(=O)NC(=O)Nc1nc(OC)cc(OC)n1` [B.59, rimsulfuron]?
**A.** pest or weed control at 0.5 g/ha (ERICA; Erigeron canadensis, post-emergence, 480 h, 0.5 g/ha a.i., read-out: herbicidal activity against ERICA found): 65%; pest or weed control at 0.5 g/ha (MATCH; Matricaria chamomilla, post-emergence, 480 h, 0.5 g/ha a.i., read-out: herbicidal activity against MATCH found): 75%; herbicidal activity against PAPRH found (PAPRH; 0.5 g/ha a.i.): 65; pest or weed control at 0.5 g/ha (IPOHE; Ipomoea hederacea, post-emergence, 480 h, 0.5 g/ha a.i., read-out: herbicidal activity against IPOHE found): 90%; pest or weed control at 0.5 g/ha (GERDI; Geranium dissectum, post-emergence, 480 h, 0.5 g/ha a.i., read-out: herbicidal activity against GERDI found): 75%
